Assay results reported in PubChem BioAssay (NCI).
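Method: 48-hour compound exposure of cells in 96-well plates, five concentrations, linear interpolation of endpoints. GI50 marks 50% less growth. TGI: total growth inhibition.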

How the values were obtained:
Assay in all cases: DTP human tumour cell line panel, 48 h
MDA-MB-435 = system: MDA-MB-435
SR leukemia = system: SR leukemia
UACC-62 melanoma = system: UACC-62 melanoma
MDA-MB-231 breast = system: MDA-MB-231 breast
TK-10 renal = system: TK-10 renal
HCT-116 colon = system: HCT-116 colon
RPMI-8226 leukemia = system: RPMI-8226 leukemia
M14 melanoma = system: M14 melanoma
A498 renal = system: A498 renal
NCI-H460 lung = system: NCI-H460 lung

| Structure (SMILES) | TGI (MDA-MB-435) [µM] | TGI (SR leukemia) [µM] | TGI (UACC-62 melanoma) [µM] | TGI (MDA-MB-231 breast) [µM] | TGI (TK-10 renal) [µM] | TGI (HCT-116 colon) [µM] | TGI (RPMI-8226 leukemia) [µM] | TGI (M14 melanoma) [µM] | TGI (A498 renal) [µM] | TGI (NCI-H460 lung) [µM] | GI50 (MDA-MB-435) [µM] | GI50 (SR leukemia) [µM] | GI50 (UACC-62 melanoma) [µM] | GI50 (MDA-MB-231 breast) [µM] | GI50 (TK-10 renal) [µM] | GI50 (HCT-116 colon) [µM] | GI50 (RPMI-8226 leukemia) [µM] | GI50 (M14 melanoma) [µM] | GI50 (A498 renal) [µM] | GI50 (NCI-H460 lung) [µM] |
| --- | --- | --- | --- | --- | --- | --- | --- | --- | --- | --- | --- | --- | --- | --- | --- | --- | --- | --- | --- | --- |
| Cc1[nH]nc(C(F)(F)F)c1N=NN(C)C | 32.7 | 18.8 | 20.6 | 25.4 | 22.9 | 4.99 | 5.15 | 29.7 | > 100 | 26.6 |  |  |  |  |  |  |  |  |  |  |
| CCOC(=O)c1cc2cc3c4c(c2oc1=O)CCCN4CCC3 | 83.5 | > 100 |  | 69.2 | > 100 | 79 | 49.3 | > 100 | 79 | > 100 |  |  |  |  |  |  |  |  |  |  |
| CC(=O)Oc1ccc(C23c4ccccc4C2(OC(C)=O)c2cc(OC(C)=O)ccc23)cc1 (stereo not drawn) | 25.6 | 24.2 | 13.7 | 33.1 | > 100 | 12.7 | 6.66 | 32.1 | > 100 | 44.4 | 4.9 | 3.14 | 3.69 | 6 | 6.23 | 3.56 | 2.29 | 14 | 34.8 | 12.3 |
| O=S(=O)(NC1=NCCN1C(=S)SN1CCn2c1nsc2=S)c1cccc2ccccc12 | 39.9 | 45.6 | 71.6 | 32.5 | 64.8 | 37.2 | 67.8 | > 100 | 78 | > 100 | 17.4 | 10.2 | 21 | 14.7 | 21.4 | 14.8 | 3.7 | 24.6 | 29.5 | 20.4 |
| CS(=O)(=O)CCNCc1cc(-c2cc3c(Nc4ccc(OCc5cccc(F)c5)c(Cl)c4)ncnc3s2)cs1 | > 25 | > 25 | 24.5 | 19.9 | > 25 | > 25 | 23.2 | > 25 | > 25 | > 25 | 11 | 7.39 | 7.12 | 6.15 | 3.16 | 12 | 6.95 | 13.4 | 2.27 | 9.64 |
| Cc1nc(N)nc2c1CCC(O)S2 (stereo not drawn) | 18.7 | > 100 | 25.8 | 32.8 | > 100 | 6.04 | > 100 | 31.6 | 93.1 | 15.3 | 4.51 | 4.21 | 11.3 | 10.2 | 32.1 | 2.39 | 21.3 | 8.44 | 17.7 | 3.86 |
| COc1cc2ncn(-c3cc(OCc4ccccc4C(F)(F)F)c(C(=O)N(C)C)s3)c2cc1OC | > 25 | > 25 | > 25 | > 25 | > 25 | > 25 | > 25 | > 25 | > 23.5 | > 25 | > 25 | > 25 | 21.6 | 10.9 | > 22.6 | > 25 | > 25 | > 25 | 4.58 | > 25 |
| NCCSSCCN | > 100 | > 100 | > 100 | > 100 | > 100 | > 100 | > 100 | > 100 | > 100 | > 100 |  |  |  |  |  |  |  |  |  |  |
| CN(CCCCCl)P(=O)(OCCS(=O)(=O)CC(NC(=O)CCC(N)C(=O)O)C(=O)NC(C(=O)O)c1ccccc1)OCC1OC(n2ccc(N)nc2=O)C(F)(F)C1O (stereo not drawn) | > 100 | 11 | > 65.4 | > 100 | > 100 | > 100 | > 78.1 | 0.435 | > 100 | > 100 | 0.178 | 0.303 | 0.377 | 14.2 | 32.8 | 0.0378 | 0.901 | 0.0369 | 0.943 | 0.104 |
| O=[N+]([O-])c1cc(Cl)c2[nH]c3c(Cl)cc([N+](=O)[O-])cc3c2c1 |  | > 100 | > 100 | 8.89 | 19.1 | 7.12 | > 100 | > 54.7 | 1.36 | > 100 | 0.31 | 0.32 | 0.247 | 0.482 | 0.356 | 0.263 | 0.124 | 0.458 | 0.15 | 0.311 |
